Earlier results in patent US20080064913A1 (priority 2005, published 2008).

System: rat
Details: in vivo

NN [hydrazine]
LD50 (rat): 60 mg/kg
